Reference: patent US20040121962A1, “Prodrugs of excitatory amino acids” (priority 2001, published 2004)

Tests used:
[1] = system: fear-potentiated startle (mGlu2/3 receptor linked); assay: Rat fear-potentiated startle anxiety model; type: in vivo; details: for MED (1 hour pre-treatement): fed rats, oral, 1 hour pre-treatment
Source text: This model was specifically chosen, as it is highly sensitive to mGlu2/3 agonists such as LY354740 and compounds of the present invention. (See, Helton […]., Monn […]., and Kallman M. J., Anxiolytic and side-effect profile of LY354740: A potent, high selective, orally active agonist for group II metabotropic glutamate receptors, J. Pharmacol. Exp. Ther. 284: 651-660 (1998)). To verify that the actions of a compound of formula I in this model were mGlu2/3 receptor mediated, as has been shown previously for LY354740 (See, […]., Ornstein P. L., Monn J. A., and Schoepp D. D., Actions of mGlu receptor agonists on fear-conditioning versus fear-expression in rats, Neuropharmacology, 38:[…] (#144) (1999)), the ability of LY341495 (an mGlu2/3 receptor antagonist) (See, Kingston A. E., Ornstein P. L., Wright R. A., Johnson […]., Burnett […]., Wu S., and Schoepp D. […] As a positive control in each experiment, diazepam (0.6 mg/kg i.p.) was used. All experiments were performed in fed rats. In the fear potentiated startle model, animals are exposed to a neutral stimulus such as light (conditioned stimulus) with an aversive stimulus such as a shock (unconditioned stimulus). Following conditioning, when the animals are presented with a loud acoustic stimulus, larger startle responses are elicited when the startle stimulus is preceded by light. Male Long Evans rats (180-400 g) or male NIH Swiss mice (18-35 g) were obtained from Harlan Sprague-Dawley, Cumberland, Ind., USA and acclimated at least 3 days before testing. Animals were housed at 23±2° C. (relative humidity 30% to 70%) and given Purina Certified Rodent Chow and water ad libitum. The photoperiod was 12 hours of light and 12 hours of dark, with dark onset at approximately 1800 hours. Test compounds were dissolved in a vehicle of purified water and neutralized with 5 N NaOH to a pH of 7-8 when applicable. Diazepam (Sigma Chemical Company, St. […] Control animals received the respective vehicle. […]

[2] = target: mGlu2/3 receptors in rat forebrain membranes; details: read-out: Displacement of 3H-LY341495 binding (Ki, nM) (mean ± S.E., N = 3)
Protocol: (§1) To study the ability to affect receptor binding of compounds of the present invention in comparison to LY354740, displacement of a high affinity mGluR2 antagonist radioligand [^3H]LY341495 to cell membranes from human mGluR2, human mGluR3, and native rat brain tissues was determined.

human mGluR2 = target: T1, human mGluR2 (Homo sapiens, UniProt Q14416); assay: Displacement of [3H]LY341495 binding to cell membranes, human mGluR2; details: read-out: Displacement of 3H-LY341495 binding (Ki, nM) (mean ± S.E., N = 3)
T1 construct: expressed in transfected cells
Protocol: as §1

human mGluR3 = target: T2, human mGluR3 (Homo sapiens, UniProt Q14832); assay: Displacement of [3H]LY341495 binding to cell membranes, human mGluR3; details: read-out: Displacement of 3H-LY341495 binding (Ki, nM) (mean ± S.E., N = 3)
T2 construct: expressed in transfected cells
T2 sequence (Q14832 23-879): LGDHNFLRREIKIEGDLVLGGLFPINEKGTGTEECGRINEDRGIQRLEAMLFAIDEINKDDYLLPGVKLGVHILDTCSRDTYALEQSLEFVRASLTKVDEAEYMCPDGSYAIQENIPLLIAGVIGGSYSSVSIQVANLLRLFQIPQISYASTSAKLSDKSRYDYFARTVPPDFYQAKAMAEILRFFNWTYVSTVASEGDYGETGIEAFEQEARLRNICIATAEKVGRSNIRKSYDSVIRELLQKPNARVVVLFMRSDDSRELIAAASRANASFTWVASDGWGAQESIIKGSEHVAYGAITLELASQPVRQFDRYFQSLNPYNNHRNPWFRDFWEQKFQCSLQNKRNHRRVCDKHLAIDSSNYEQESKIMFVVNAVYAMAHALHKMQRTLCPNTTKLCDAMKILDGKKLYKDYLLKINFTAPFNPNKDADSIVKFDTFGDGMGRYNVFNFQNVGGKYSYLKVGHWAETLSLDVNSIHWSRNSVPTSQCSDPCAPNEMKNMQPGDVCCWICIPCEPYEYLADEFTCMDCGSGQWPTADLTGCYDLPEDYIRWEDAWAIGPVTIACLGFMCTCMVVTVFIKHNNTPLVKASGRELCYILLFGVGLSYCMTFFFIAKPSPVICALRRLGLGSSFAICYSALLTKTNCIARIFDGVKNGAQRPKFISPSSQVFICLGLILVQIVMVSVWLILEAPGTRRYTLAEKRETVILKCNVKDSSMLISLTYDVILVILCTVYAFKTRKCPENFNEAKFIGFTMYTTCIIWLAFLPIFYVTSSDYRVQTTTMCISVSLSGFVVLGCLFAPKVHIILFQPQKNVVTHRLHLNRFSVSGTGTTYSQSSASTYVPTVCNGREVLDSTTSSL
Protocol: as §1

T1 sequence (Q14416 19-872): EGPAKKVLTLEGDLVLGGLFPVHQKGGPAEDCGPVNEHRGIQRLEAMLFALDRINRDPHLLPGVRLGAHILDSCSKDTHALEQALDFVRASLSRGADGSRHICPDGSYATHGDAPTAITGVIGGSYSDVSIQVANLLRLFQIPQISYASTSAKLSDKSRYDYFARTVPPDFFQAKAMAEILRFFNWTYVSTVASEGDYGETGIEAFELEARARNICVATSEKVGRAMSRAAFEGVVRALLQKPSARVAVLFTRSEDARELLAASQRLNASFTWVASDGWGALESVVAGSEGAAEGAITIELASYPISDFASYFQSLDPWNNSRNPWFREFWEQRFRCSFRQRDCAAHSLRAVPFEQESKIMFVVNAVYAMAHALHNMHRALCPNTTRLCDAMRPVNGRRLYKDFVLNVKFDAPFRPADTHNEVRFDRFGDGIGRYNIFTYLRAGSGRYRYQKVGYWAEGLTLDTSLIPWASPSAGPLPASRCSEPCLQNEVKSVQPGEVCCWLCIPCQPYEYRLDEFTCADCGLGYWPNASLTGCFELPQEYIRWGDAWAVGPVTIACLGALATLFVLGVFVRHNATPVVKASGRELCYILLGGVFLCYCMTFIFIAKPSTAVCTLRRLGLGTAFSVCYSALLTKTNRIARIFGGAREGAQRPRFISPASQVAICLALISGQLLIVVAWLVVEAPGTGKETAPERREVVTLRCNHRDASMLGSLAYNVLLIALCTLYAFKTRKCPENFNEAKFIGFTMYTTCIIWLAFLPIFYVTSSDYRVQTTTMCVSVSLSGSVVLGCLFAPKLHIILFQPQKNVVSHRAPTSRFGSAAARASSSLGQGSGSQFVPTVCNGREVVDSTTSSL

| Ki [2] [nM] | Ki (human mGluR2) [nM] | Ki (human mGluR3) [nM] | Structure (SMILES) | MED (1 hour pre-treatement) [1] [mg/kg p.o.] | oral potency in the treatment of anxiety ([1]; preclinical studies) |
| --- | --- | --- | --- | --- | --- |
| 80 ± 7.3 | 84.7 ± 11.1 | 126 ± 4.8 | NC1(C(=O)O)CCC2C(C(=O)O)C21 (single isomer, unassigned; (+)) [LY354740, (+)-2-aminobicyclo[3.1.0]hexane-2,6-dicarboxylic acid] | 3.0 | – |
| – | – | – | C[C@H](N)C(=O)N[C@@]1(C(=O)O)CC[C@H]2[C@H](C(=O)O)[C@H]21.Cl [Example 3, (1S,2S,5R,6S)-2-[(2′S)-(2′-Amino)-propionyl]amino-bicyclo[3.1.0]hexane-2,6-dicarboxylic acid hydrochloride] | – | greatly enhanced oral potency |
| – | > 10000 | > 10000 | C[C@H](N)C(=O)N[C@@]1(C(=O)O)CC[C@H]2[C@H](C(=O)O)[C@H]21 [Formula I, (1S,2S,5R,6S)-2-[(2′S)-(2′-Amino)-propionyl]amino-bicyclo[3.1.0]hexane-2,6-dicarboxylic acid] | 0.01 | – |
